{"source": "patent US10563263B2", "about": "“Genetic polymorphisms associated with statin response and cardiovascular diseases, methods of detection and uses thereof” (CELERA CORPORATION, priority 2010, dated 2020)", "test_system": "revascularization, unstable angina requiring hospitalization, MI, all causes of death, or stroke", "assay": "PROVE IT-TIMI 22: SNP by treatment interaction (high-dose atorvastatin vs standard-dose pravastatin), logistic regression (synergy index), primary composite endpoint", "type": "in vivo, human", "conditions": "atorvastatin vs pravastatin; for OR (SNP by treatment interaction, logistic regression): PROVE-IT; for OR: PROVEIT", "data": [{"molecule": "CC(C)c1c(C(=O)Nc2ccccc2)c(-c2ccccc2)c(-c2ccc(F)cc2)n1CC[C@@H](O)C[C@@H](O)CC(=O)O", "note": "[Atorvastatin, atorvastatin]", "values": [{"measurement": "OR (SNP by treatment interaction, logistic regression)", "setting": "rs992695, Imputed, allele C (A1), model DOM, NMISS 442", "value": 1.216}, {"measurement": "OR (SNP by treatment interaction, logistic regression)", "setting": "rs9866421, Genotyped, allele C (A1), model REC, NMISS 443", "value": 0.5895}, {"measurement": "OR (SNP by treatment interaction, logistic regression)", "setting": "rs9881685, Imputed, allele A (A1), model ADD, NMISS 440", "value": 1.041}, {"measurement": "OR (SNP by treatment interaction, logistic regression)", "setting": "rs9881685, Imputed, allele A (A1), model DOM, NMISS 440", "value": 1.041}, {"measurement": "OR (SNP by treatment interaction, logistic regression)", "setting": "rs9936999, Imputed, allele G (A1), model DOM, NMISS 266", "value": 0.7758}, {"measurement": "OR", "setting": "marker rs2574, cohort, model rec, End-point CVD", "value": 1.62}, {"measurement": "OR", "setting": "marker rs7508, caseonly, model dom, End-point CHD", "value": 1.65}, {"measurement": "OR", "setting": "marker rs198464, cohort, model rec, End-point CHD", "value": 1.44}, {"measurement": "OR", "setting": "marker rs198476, caseonly, model rec, End-point CHD", "value": 1.85}, {"measurement": "OR", "setting": "marker rs264122, cohort, model dom, End-point CHD", "value": 0.72}, {"measurement": "OR", "setting": "marker rs271046, caseonly, model rec, End-point CVD", "value": 0.68}, {"measurement": "OR", "setting": "marker rs494111, caseonly, model rec, End-point CHD", "value": 0.44}, {"measurement": "OR", "setting": "marker rs498657, caseonly, model add, End-point CHD", "value": 1.57}, {"measurement": "OR", "setting": "marker rs619825, caseonly, model rec, End-point CHD", "value": 0.40}, {"measurement": "OR", "setting": "marker rs646749, caseonly, model rec, End-point CHD", "value": 0.40}, {"measurement": "OR", "setting": "marker rs694780, caseonly, model rec, End-point CHD", "value": 0.40}, {"measurement": "OR", "setting": "marker rs892162, caseonly, model rec, End-point CHD", "value": 0.64}, {"measurement": "OR", "setting": "marker rs974950, cohort, model dom, End-point CVD", "value": 0.64}, {"measurement": "OR", "setting": "marker rs996022, caseonly, model rec, End-point CHD", "value": 0.41}, {"measurement": "OR", "setting": "marker rs1003322, caseonly, model dom, End-point CHD", "value": 1.41}, {"measurement": "OR", "setting": "marker rs1009748, cohort, model add, End-point CVD", "value": 1.43}, {"measurement": "OR", "setting": "marker rs1136046, caseonly, model add, End-point CVD", "value": 1.48}, {"measurement": "OR", "setting": "marker rs1190706, cohort, model dom, End-point CVD", "value": 0.76}, {"measurement": "OR", "setting": "marker rs1266489, cohort, model dom, End-point CVD", "value": 0.67}, {"measurement": "OR", "setting": "marker rs1336400, cohort, model dom, End-point CHD", "value": 1.46}, {"measurement": "OR", "setting": "marker rs1344081, caseonly, model dom, End-point CVD", "value": 1.31}, {"measurement": "OR", "setting": "marker rs1450092, caseonly, model add, End-point CHD", "value": 0.81}, {"measurement": "OR", "setting": "marker rs1524962, caseonly, model add, End-point CHD", "value": 0.80}, {"measurement": "OR", "setting": "marker rs1566221, cohort, model add, End-point CHD", "value": 0.68}, {"measurement": "OR", "setting": "marker rs1727746, cohort, model dom, End-point CVD", "value": 1.30}, {"measurement": "OR", "setting": "marker rs1798093, cohort, model rec, End-point CHD", "value": 2.00}, {"measurement": "OR", "setting": "marker rs1942876, caseonly, model rec, End-point CHD", "value": 0.41}, {"measurement": "OR", "setting": "marker rs2011318, caseonly, model add, End-point CHD", "value": 0.63}, {"measurement": "OR", "setting": "marker rs2060022, caseonly, model rec, End-point CVD", "value": 0.72}, {"measurement": "OR", "setting": "marker rs2108425, cohort, model dom, End-point CHD", "value": 0.77}, {"measurement": "OR", "setting": "marker rs2110564, cohort, model dom, End-point CVD", "value": 0.60}, {"measurement": "OR", "setting": "marker rs2113334, caseonly, model rec, End-point CVD", "value": 0.29}, {"measurement": "OR", "setting": "marker rs2327412, cohort, model add, End-point CVD", "value": 1.38}, {"measurement": "OR", "setting": "marker rs2505039, cohort, model add, End-point CHD", "value": 0.84}, {"measurement": "OR", "setting": "marker rs2588350, cohort, model add, End-point CVD", "value": 0.82}, {"measurement": "OR", "setting": "marker rs2648694, cohort, model rec, End-point CVD", "value": 1.72}, {"measurement": "OR", "setting": "marker rs2655222, caseonly, model rec, End-point CHD", "value": 0.23}, {"measurement": "OR", "setting": "marker rs2657940, caseonly, model add, End-point CHD", "value": 1.20}, {"measurement": "OR", "setting": "marker rs2993156, caseonly, model dom, End-point CVD", "value": 0.75}, {"measurement": "OR", "setting": "marker rs3763978, cohort, model add, End-point CVD", "value": 0.84}, {"measurement": "OR", "setting": "marker rs4038018, caseonly, model dom, End-point CHD", "value": 0.76}, {"measurement": "OR", "setting": "marker rs4240808, caseonly, model rec, End-point CVD", "value": 0.56}, {"measurement": "OR", "setting": "marker rs4242281, caseonly, model rec, End-point CVD", "value": 2.08}, {"measurement": "OR", "setting": "marker rs4420312, caseonly, model dom, End-point CHD", "value": 0.59}, {"measurement": "OR", "setting": "marker rs4472926, caseonly, model dom, End-point CHD", "value": 0.53}, {"measurement": "OR", "setting": "marker rs4660234, cohort, model dom, End-point CHD", "value": 1.45}, {"measurement": "OR", "setting": "marker rs4787415, caseonly, model rec, End-point CHD", "value": 0.62}, {"measurement": "OR", "setting": "marker rs4807536, caseonly, model dom, End-point CVD", "value": 1.53}, {"measurement": "OR", "setting": "marker rs4836745, caseonly, model dom, End-point CVD", "value": 0.65}, {"measurement": "OR", "setting": "marker rs4870109, caseonly, model rec, End-point CVD", "value": 1.97}, {"measurement": "OR", "setting": "marker rs6427807, cohort, model dom, End-point CVD", "value": 0.66}, {"measurement": "OR", "setting": "marker rs6539231, caseonly, model dom, End-point CVD", "value": 0.68}, {"measurement": "OR", "setting": "marker rs6563805, caseonly, model add, End-point CHD", "value": 0.53}, {"measurement": "OR", "setting": "marker rs6585412, cohort, model dom, End-point CVD", "value": 1.39}, {"measurement": "OR", "setting": "marker rs6685920, cohort, model dom, End-point CVD", "value": 1.45}, {"measurement": "OR", "setting": "marker rs6998016, caseonly, model rec, End-point CHD", "value": 6.19}, {"measurement": "OR", "setting": "marker rs7018577, caseonly, model dom, End-point CHD", "value": 1.44}, {"measurement": "OR", "setting": "marker rs7070244, caseonly, model add, End-point CVD", "value": 1.30}, {"measurement": "OR", "setting": "marker rs7078016, cohort, model dom, End-point CVD", "value": 1.41}, {"measurement": "OR", "setting": "marker rs7222186, caseonly, model dom, End-point CHD", "value": 0.50}, {"measurement": "OR", "setting": "marker rs7276749, cohort, model dom, End-point CVD", "value": 0.45}, {"measurement": "OR", "setting": "marker rs7332076, caseonly, model rec, End-point CVD", "value": 2.40}, {"measurement": "OR", "setting": "marker rs7338174, caseonly, model dom, End-point CHD", "value": 2.50}, {"measurement": "OR", "setting": "marker rs7449527, caseonly, model dom, End-point CHD", "value": 1.53}, {"measurement": "OR", "setting": "marker rs7710039, caseonly, model dom, End-point CVD", "value": 0.70}, {"measurement": "OR", "setting": "marker rs7839562, caseonly, model dom, End-point CHD", "value": 1.54}, {"measurement": "OR", "setting": "marker rs7916629, caseonly, model rec, End-point CVD", "value": 2.11}, {"measurement": "OR", "setting": "marker rs7918692, caseonly, model dom, End-point CVD", "value": 1.48}, {"measurement": "OR", "setting": "marker rs7959965, caseonly, model add, End-point CVD", "value": 0.74}, {"measurement": "OR", "setting": "marker rs8129810, cohort, model dom, End-point CVD", "value": 0.45}, {"measurement": "OR", "setting": "marker rs9478241, caseonly, model rec, End-point CVD", "value": 2.08}, {"measurement": "OR", "setting": "marker rs9914580, caseonly, model dom, End-point CHD", "value": 0.51}, {"measurement": "OR", "setting": "marker rs10012485, cohort, model dom, End-point CVD", "value": 0.54}, {"measurement": "OR", "setting": "marker rs10497883, caseonly, model add, End-point CHD", "value": 0.68}, {"measurement": "OR", "setting": "marker rs10518335, caseonly, model dom, End-point CVD", "value": 0.55}, {"measurement": "OR", "setting": "marker rs10774580, caseonly, model dom, End-point CHD", "value": 0.63}, {"measurement": "OR", "setting": "marker rs10945874, cohort, model add, End-point CVD", "value": 1.72}, {"measurement": "OR", "setting": "marker rs11138314, cohort, model add, End-point CHD", "value": 0.64}, {"measurement": "OR", "setting": "marker rs11585647, caseonly, model dom, End-point CVD", "value": 0.49}, {"measurement": "OR", "setting": "marker rs11721179, caseonly, model dom, End-point CVD", "value": 0.64}, {"measurement": "OR", "setting": "marker rs11734256, cohort, model rec, End-point CVD", "value": 0.57}, {"measurement": "OR", "setting": "marker rs12048902, caseonly, model add, End-point CVD", "value": 0.72}, {"measurement": "OR", "setting": "marker rs12341095, cohort, model rec, End-point CHD", "value": 1.63}, {"measurement": "OR", "setting": "marker rs12646525, cohort, model dom, End-point CVD", "value": 0.59}, {"measurement": "OR", "setting": "marker rs12679254, caseonly, model dom, End-point CVD", "value": 0.79}, {"measurement": "OR", "setting": "marker rs12817873, cohort, model add, End-point CVD", "value": 0.85}, {"measurement": "OR", "setting": "marker rs13107334, cohort, model dom, End-point CVD", "value": 0.53}, {"measurement": "OR", "setting": "marker rs13126170, caseonly, model dom, End-point CVD", "value": 0.53}]}]}
